Like-named read-outs stand apart in the source and are kept apart here. Marks after values point to notes of the source that are not given here.
What was measured:
[1] = Critical micelle concentration (CMC), conductometric method; assay type: physicochemical; conditions: double distilled water, 25 °C
Text: Alkanoyl chlorides (dodecanoyl, tetradecanoyl and hexadecanoyl) were obtained from Sigma-Aldrich. Anhydrous lactic acid (99%, crystalline) was purchased from Alfal. All solvents were obtained from Avantor Performance Materials or Stanlab and used as received. Methanol (solvent) for counterions exchange reactions was analytical grade (Avantor Performance Materials) and was additionally dried over CaH2 prior synthesis. Deuterated solvents were from Sigma-Aldrich. CMC values of surfactants were measured conductometrically in double distilled water at 25 °C.
(§1) Elemental analysis was conducted utilizing Vario EL cube (Elementar, Germany) calibrated on acetanilide. Mass spectra were gain by electrospray ionization mass spectroscopy (ESI–MS) (micrOTOF-Q instrument; Bruker Daltonics, Germany). The ESI–MS aparatus was operated in the positive ion mode (calibrated with the Tunemix™ mixture; Bruker Daltonics; Germany), followed by spectra analysis by the DataAnalysis 3.4 software (Bruker Daltonics, Germany)—resolution of at least 5 ppm. Proton NMR and ^13C NMR measurements were performed on a Bruker AMX-500 spectrometer, utilizing CDCl3 or DMSO-d6 as a solvent. Proton and ^13C chemical shifts (given in ppm) were calibrated to TMS (δ = 0 ppm) as an internal reference. Krafft points were measured according to procedures described in our previous studies Lamch et al.,[82]. Values of CMC for all surfactants were measured utilizing the conductometric method for the compounds’ solutions in milliQ water in the same manner as described in Kula et al.. For all spectra: ^1H NMR, ^13C NMR and ESI–MS as well as appropriate comments see Electronic Supplementary Material.

[2] = test system: S. cerevisiae Σ1278b ATCC 42800; experiment: Cytotoxicity, alamarBlue (resazurin) assay on yeast cells; assay type: cell-based, Saccharomyces cerevisiae; conditions: ¼ and ½ MIC
Method: To determine the cytotoxicity of the tested gemini QAS on yeast cells, an experiment was performed using the alamarBlue colorimetric assay to determine the metabolic activity of cells, using the modified alamarBlue Cell Viability Assay Reagent method. Enzymes of the electron transport system reduce the blue resazurin solution to resorufin, which is fluorescent pink.
The yeast culture S. cerevisiae Σ1278b was incubated at 28 °C for 16 h with shaking (100 rpm), centrifuged (1000 rcf, 5 min) and the optical density was obtained, OD = 1.0, λ = 590 nm. On a 96-well titration plate we spotted 160 μl of YPG medium, 20 μl of yeast culture and the tested gemini QAS at final concentrations of ½ and ¼ MIC. The negative control was YPG medium with resazurin solution, and the positive control was resazurin solution with yeast culture. The plates were incubated at 28 °C for 12 h. Then, 20 μl of resazurin solution (alamarBlue) was added to the wells and the plate was incubated for 4 h in the dark. After incubation, the absorbance was measured at λ = 570 nm and λ = 600 nm and the color change of the wells from blue to pink was observed. The experiment was performed in 3 repetitions.

[3] = test system: Saccharomyces cerevisiae BY4741 ATCC 201388; experiment: MIC/MFC, microdilution method (modified CLSI M27); assay type: cell-based; conditions: for MIC: YPG, read-out: Minimum inhibitory concentration (MIC); for MIC / Minimum fungicidal concentration (MFC*): 28 °C; for Minimum fungicidal concentration (MFC*): no growth on solid YPG
Method: (§2) Minimum inhibitory concentration (MIC) and minimum fungicidal concentration (MFC) values were determined based on the modified CLSI M27 protocol. The study was performed using the microdilution method on sterile 96-well titration plates. The S. cerevisiae Σ1278b ATCC 42800, S. cerevisiae BY4741 ATCC 201388, C. albicans ATCC 10231, C. albicans 595/20 and R. mucilaginosa ATCC 4056 were incubated for 18 h at 28 °C (without shaking), then centrifuged (1000 rcf, 5 min), and the obtained pellet was suspended in fresh YPG medium and optical density (OD) = 0.25–0.3 was determined at a wavelength (λ) of 590 nm. Next, 10 μl of selected compounds at appropriate final concentrations (5–1280 μM) were spotted into the wells of the titration plate. Then, 80 μl of YPG medium and 10 μl of culture with a fixed OD were added. All tests were performed in triplicate. The plate was incubated at 28 °C for 24 h. The YPG medium was a negative control, while the prepared culture not treated with compounds was a positive control. […] The minimum inhibitory concentration was determined at 90% growth inhibition.
(§3) In order to determine the MFC of selected gemini surfactants, 10 μl of culture was transferred to solid YPG medium from the wells of the titration plate in which MIC was observed and from wells with the compound with higher concentrations. The spotted suspensions were incubated at 28 °C for 24 h. After incubation, inhibition of the growth of microorganisms was observed.

[4] = test system: Saccharomyces cerevisiae Σ1278b ATCC 42800; experiment: MIC/MFC, microdilution method (modified CLSI M27); assay type: cell-based; conditions: S. cerevisiae Σ1278b, 28 °C; for Minimum inhibitory concentration (MIC) / MIC: 90% growth inhibition, YPG; for Minimum fungicidal concentration (MFC*) / MFC: no growth on solid YPG; for MIC: read-out: Minimum inhibitory concentration (MIC); for MFC: read-out: Minimum fungicidal concentration (MFC*)
Method: as §2, §3

Candida albicans 595/20 = experiment: MIC/MFC, microdilution method (modified CLSI M27); assay type: cell-based; conditions: C. albicans 595/20 (clinical isolate), 28 °C; for Minimum inhibitory concentration (MIC) / MIC: 90% growth inhibition, YPG; for Minimum inhibitory concentration (MIC) / Minimum fungicidal concentration (MFC*) / MFC: 24 h; for Minimum fungicidal concentration (MFC*) / MFC: no growth on solid YPG; for MIC / MFC: Candida albicans; for MIC: 595/20, 24 h, read-out: Minimum inhibitory concentration (MIC); for MFC: read-out: Minimum fungicidal concentration (MFC*)
Method: as §2, §3

[5] = test system: Candida albicans ATCC 10231; experiment: MIC/MFC, microdilution method (modified CLSI M27); assay type: cell-based; conditions: 28 °C; for Minimum inhibitory concentration (MIC) / Minimum fungicidal concentration (MFC*): C. albicans ATCC 10231, 24 h; for Minimum inhibitory concentration (MIC): 90% growth inhibition; for Minimum inhibitory concentration (MIC) / MIC: YPG; for Minimum fungicidal concentration (MFC*): no growth on solid YPG; for MIC / MFC: Candida albicans, ATCC10231, 24 h; for MIC: C. albicans ATCC 10231, 90% growth inhibition, read-out: Minimum inhibitory concentration (MIC); for MFC: C. albicans ATCC 10231, no growth on solid YPG, read-out: Minimum fungicidal concentration (MFC*)
Method: as §2, §3

[6] = test system: Rhodotorula mucilaginosa ATCC 4056; experiment: MIC/MFC, microdilution method (modified CLSI M27); assay type: cell-based; conditions: 28 °C; for MIC / Minimum inhibitory concentration (MIC): YPG; for MIC: read-out: Minimum inhibitory concentration (MIC); for MFC: read-out: Minimum fungicidal concentration (MFC*)
Method: as §2, §3

C. albicans ATCC 10231 = experiment: Filamentation of Candida albicans (DIC microscopy); assay type: cell-based; conditions: 24 h incubation, ½ MIC, 37 °C
Method: The culture of C. albicans ATCC 10231 was incubated in YPG medium at 28 °C for 18 h. Then the culture was centrifuged (1000 rcf, 5 min), and the resulting pellet was suspended in fresh YPG medium to obtain a culture with OD = 0.6. […] The formation of filaments was observed using a differential interference contrast microscope (Olympus BX50 DIC Microscope) after 12 and 24 h of exposure to selected surfactants on C. albicans cells. The control was a culture not exposed to gemini QAS. The experiment was performed based on a modification of the protocol of Obłąk et al. ^46.

[7] = Krafft point (TK) determination; assay type: physicochemical
Method: as §1

[8] = S. cerevisiae BY4741, 90% growth inhibition, 24 h
[9] = R. mucilaginosa ATCC 4056, 90% growth inhibition, 24 h
[10] = R. mucilaginosa ATCC 4056, no growth on solid YPG, 24 h
[11] = Saccharomyces cerevisiae, ATCC42800, 24 h

Row | Compound | CMC [1] | Cytotoxic potential towards mitochondrial metabolism of S. cerevisiae Σ1278b cells [2] | MIC [3, 8] | Minimum fungicidal concentration (MFC*) ([3]; S. cerevisiae BY4741, 24 h) | Minimum inhibitory concentration (MIC) ([4]; 24 h) | Minimum fungicidal concentration (MFC*) ([4]; 24 h) | Minimum inhibitory concentration (MIC) (Candida albicans 595/20) | Minimum fungicidal concentration (MFC*) (Candida albicans 595/20) | Minimum inhibitory concentration (MIC) [5] | Minimum fungicidal concentration (MFC*) [5] | MIC [6, 9] | Effect on production of filaments by C. albicans (C. albicans ATCC 10231) | TK (Krafft point) [7] | MIC (Candida albicans 595/20) | MFC (Candida albicans 595/20) | MIC [5] | MFC [5] | Minimum inhibitory concentration (MIC) [6, 9] | Minimum fungicidal concentration (MFC*) [6, 10] | further results
1 | CCCCCCCCCCCCCCCC(=O)N(CCCN(CCC[N+](C)(C)C)C(=O)CCCCCCCCCCCCCCC)CCC[N+](C)(C)C [2xC16LaG3] | 3.7*10^–7 mol/dm^3 | did not have cytotoxic potential | 640 µM | > 1280 µM | > 1280 > 1280* µM | > 1280 > 1280* µM | > 1280 > 1280* µM | > 1280 > 1280* µM | > 1280 > 1280* µM | > 1280 > 1280* µM | 80 µM | strongly prevented the formation of filaments | < 0 °C | – | – | – | – | – | – | MFC [6, 10]: 640 µM
2 | CCCCCCCCCCCC(=O)N(CCCN(CCC[N+](C)(C)C)C(=O)CCCCCCCCCCC)CCC[N+](C)(C)C [2xC12BrG3] | 6.4*10^–5 mol/dm^3 | did not have cytotoxic potential | 20 µM | 320 µM | – | – | – | – | – | – | 10 µM | – | < 0 °C | 1280 µM | > 1280 µM | 640 µM | 640 µM | 10 10* µM | 10 10* µM | MIC ([4]; 24 h): 240 µM; MFC ([4]; 24 h): 320 µM; Effect on production of filaments by C. albicans (C. albicans ATCC 10231; listed as Dibromides with 12-carbon hydrophobic chains): completely inhibits filament formation and cell growth
3 | CCCCCCCCCCCCCCCC(=O)N(CCCN(CCC[N+](C)(C)C)C(=O)CCCCCCCCCCCCCCC)CCC[N+](C)(C)C [2xC16MeCO3G3, dimethyl{{3-[N-(3-{N-[3-(dimethylammonium)propyl]hexadecylamido}propyl}hexadecylamido}propyl}}ammonium dimethylcarbonate] | 1.6*10^–6 mol/dm^3 | did not have cytotoxic potential | 640 µM | 1280 µM | > 1280 > 1280* µM | > 1280 > 1280* µM | > 1280 > 1280* µM | > 1280 > 1280* µM | > 1280 > 1280* µM | > 1280 > 1280* µM | – | significantly reduced their number | ~ 5 °C | – | – | – | – | 640 640* µM | 640 640* µM | –
4 | CCCCCCCCCCCCCC(=O)N(CCCN(CCC[N+](C)(C)C)C(=O)CCCCCCCCCCCCC)CCC[N+](C)(C)C [2xC14BrG3] | 5.4*10^–6 mol/dm^3 | did not have cytotoxic potential | – | – | – | – | – | – | – | – | – | had little effect on the formation of filaments | < 0 °C | 640 µM | > 1280 µM | 640 µM | 1280 µM | – | – | MIC ([3]; Saccharomyces cerevisiae, ATCC201388, 24 h, S. cerevisiae BY4741, 90% growth inhibition): 160 µM; MFC ([3]; Saccharomyces cerevisiae, ATCC201388, 24 h, read-out: Minimum fungicidal concentration (MFC*), S. cerevisiae BY4741, no growth on solid YPG, 28 °C): 1280 µM; MIC [4, 11]: 360 µM; MFC [4, 11]: 640 µM; MIC ([6]; Rhodotorula mucilaginosa, ATCC4056, 24 h, R. mucilaginosa ATCC 4056, 90% growth inhibition): 80 µM; MFC ([6]; Rhodotorula mucilaginosa, ATCC4056, 24 h, R. mucilaginosa ATCC 4056, no growth on solid YPG): 320 µM

— paper PMC11187217, “Anti-adhesive, anti-biofilm and fungicidal action of newly synthesized gemini quaternary ammonium salts” (Scientific Reports, 2024)
